Data taken from patent US20250136558A1, “PYRAZINE COMPOUNDS AS IRREVERSIBLE INHIBITORS OF FLT3” (BIOMEA FUSION, INC., priority 2021, published 2025).

Experiments:
MOLM-13 = assay: Proliferation inhibition (CellTiter-Glo) in MOLM-13 cells; assay type: cell-based; settings: Homo sapiens, 96 h, MOLM-13 AML cells, heterozygous FLT3-ITD, IC50 (4 days)
How it was run: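 MOLM-13 human AML cells, heterozygous for FLT3-ITD, were grown in RPMI-1640 with 10% heat-inactivated FBS and 1% Pen-Strep. About 10,000 cells in 200 μL were seeded per well of 96-well plates. After 2 hours, compounds from DMSO stocks were dispensed at eight concentrations in duplicate, with 0.2% DMSO as the untreated control. Viability was read as CellTiter-Glo ATP luminescence, and IC50 was obtained from a four-parameter logistic fit.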

MV-4-11 = assay: Proliferation inhibition (CellTiter-Glo) in MV-4-11 cells; assay type: cell-based; settings: Homo sapiens, MV4-11, 96 h, MV-4-11 AML cells, homozygous FLT3-ITD, IC50 (4 days)
How it was run: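 MV-4-11 human AML cells (homozygous FLT3-ITD) grown in RPMI-1640 with 10% heat-inactivated FBS and 1% Pen-Strep were seeded at about 10,000 cells per 200 μL in 96 well plates. Two hours later, compounds were dispensed at eight concentrations in duplicate. Viability was measured by CellTiter-Glo luminescence, and IC50 values came from four-parameter logistic non-linear regression against untreated cells (0.2% DMSO).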

K-562 = assay: Proliferation inhibition (CellTiter-Glo) in K-562 cells; assay type: cell-based; settings: Homo sapiens, K562, 96 h, K-562 CML cells, no FLT3 mutations, IC50 (4 days)
How it was run: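 The CML line […] (ATCC: CRL-3343) was cultured in RPMI-1640 with 10% heat-inactivated FBS and 1% Pen-Strep at 37° C. Cells were seeded at about 10,000 per 200 μL in 96-well plates, and test compound was dispensed 2 hours later at eight concentrations in duplicate. Viability was measured as ATP luminescence with CellTiter-Glo. Untreated cells (0.2% DMSO) defined 100% proliferation, and IC50 values came from four-parameter logistic fits.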

[1] = system: quizartinib-resistant AML; settings: Yamaura et al., 2018; cited from earlier work

| IC50 (MOLM-13) [nM] | IC50 (MV-4-11) [nM] | IC50 (K-562) [nM] | SMILES | activity against quizartinib-resistant AML [1] |
| --- | --- | --- | --- | --- |
| 1 to 10 | < 1 | > 500 | CCc1nc(C(N)=O)c(Nc2cccc(OCCCNC(=O)[C@H](C)N(C)C(=O)/C=C/CN3CC(F)C3)c2)nc1NC1CCOCC1 [Compound 139, (S,E)-6-Ethyl-3-((3-(3-(2-(4-(3-fluoroazetidin-1-yl)-N-methylbut-2-enamido)propanamido)propoxy)phenyl)amino)-5-((tetrahydro-2H-pyran-4-yl)amino)pyrazine-2-carboxamide] | – |
| 10 to 100 | 10 to 100 | > 500 | CCc1nc(C(N)=O)c(Nc2cccc(OCCCNC(=O)[C@H](C)N(C)C/C=C/C(=O)N(C)C)c2)nc1NC1CCOCC1 [Compound 140, (S,E)-3-((3-(3-(2-((4-(dimethylamino)-4-oxobut-2-en-1-yl)(methyl)amino)propanamido)propoxy)phenyl)amino)-6-ethyl-5-((tetrahydro-2H-pyran-4-yl)amino)pyrazine-2-carboxamide] | – |
| < 1 | < 1 | > 500 | CCc1nc(C(N)=O)c(Nc2cccc(OCCCNC(=O)[C@H](C)N(C)C(=O)/C=C/CN(C)C)c2)nc1N(CC)CC [Compound 141, (S,E)-5-(diethylamino)-3-((3-(3-(2-(4-(dimethylamino)-N-methylbut-2-enamido)propanamido)propoxy)phenyl)amino)-6-ethylpyrazine-2-carboxamide] | – |
| 1 to 10 | 1 to 10 | > 500 | CCc1nc(C(N)=O)c(Nc2cccc(OCCCNC(=O)[C@H](C)N(C)C(=O)/C=C/CN(C)C)c2)nc1N1CCCC1 [Compound 142, (S,E)-3-((3-(3-(2-(4-(dimethylamino)-N-methylbut-2-enamido)propanamido)propoxy)phenyl)amino)-6-ethyl-5-(pyrrolidin-1-yl)pyrazine-2-carboxamide] | – |
| 1 to 10 | < 1 | > 500 | CCc1nc(C(N)=O)c(Nc2cccc(OCCCNC(=O)[C@H](C)N(C)C(=O)/C=C/CN(C)C)c2)nc1N(C)C(C)C [Compound 145, (S,E)-3-((3-(3-(2-(4-(dimethylamino)-N-methylbut-2-enamido)propanamido)propoxy)phenyl)amino)-6-ethyl-5-(isopropyl(methyl)amino)pyrazine-2-carboxamide] | – |
| 1 to 10 | < 1 | > 500 | CCc1nc(C(N)=O)c(Nc2cccc(OCCCNC(=O)[C@H](C)N(C)C(=O)/C=C/CN(C)C)c2)nc1N(C)CC [Compound 146, (S,E)-3-((3-(3-(2-(4-(dimethylamino)-N-methylbut-2-enamido)propanamido)propoxy)phenyl)amino)-6-ethyl-5-(ethyl(methyl)amino)pyrazine-2-carboxamide] | – |
| > 500 | 10 to 100 | > 500 | CCc1nc(C(N)=O)c(Nc2cccc(OCCCNC(=O)[C@H](C)N(C)C(=O)/C=C/CN3CC(F)(F)C3)c2)nc1NC1CCOCC1 [Compound 147, (S,E)-3-((3-(3-(2-(4-(3,3-difluoroazetidin-1-yl)-N-methylbut-2-enamido)propanamido)propoxy)phenyl)amino)-6-ethyl-5-((tetrahydro-2H-pyran-4-yl)amino)pyrazine-2-carboxamide] | – |
| 1 to 10 | 1 to 10 | > 500 | CCc1nc(C(N)=O)c(Nc2cccc(OCCCNC(=O)[C@H](C)N(C)C(=O)/C=C/CN(C)C)c2)nc1N1CCC1 [Compound 148, (S,E)-5-(azetidin-1-yl)-3-((3-(3-(2-(4-(dimethylamino)-N-methylbut-2-enamido)propanamido)propoxy)phenyl)amino)-6-ethylpyrazine-2-carboxamide] | – |
| 1 to 10 | < 1 | > 500 | CCc1nc(C(N)=O)c(Nc2cc(F)cc(OCCCNC(=O)[C@H](C)N(C)C(=O)/C=C/CN(C)C)c2)nc1N(C)C [Compound 149, (S,E)-5-(dimethylamino)-3-((3-(3-(2-(4-(dimethylamino)-N-methylbut-2-enamido)propanamido)propoxy)-5-fluorophenyl)amino)-6-ethylpyrazine-2-carboxamide] | – |
| > 500 | > 500 | > 500 | CCc1nc(C(=O)NC)c(Nc2cc(F)cc(OCCCNC(=O)C(C)N(C)C(=O)/C=C/CN(C)C)c2)nc1N(C)C (stereo not shown) [Compound 151, (E)-5-(dimethylamino)-3-((3-(3-(2-(4-(dimethylamino)-N-methylbut-2-enamido)propanamido)propoxy)-5-fluorophenyl)amino)-6-ethyl-N-methylpyrazine-2-carboxamide] | – |
| > 500 | > 500 | > 500 | CCc1nc(C(=O)NC)c(Nc2cccc(CCNC(=O)C(C)N(C)C(=O)/C=C/CN(C)C)c2)nc1NC1CCOCC1 (stereo not shown) [Compound 152, (E)-3-((3-(2-(2-(4-(dimethylamino)-N-methylbut-2-enamido)propanamido)ethyl)phenyl)amino)-6-ethyl-N-methyl-5-((tetrahydro-2H-pyran-4-yl)amino)pyrazine-2-carboxamide] | – |
| 10 to 100 | 1 to 10 | > 500 | CCc1nc(C(N)=O)c(Nc2cc(F)cc(O[C@@H](C)CNC(=O)[C@H](C)N(C)C(=O)/C=C/CN(C)C)c2)nc1N(C)C [Compound 153, 5-(dimethylamino)-3-((3-(((S)-1-((S)-2-((E)-4-(dimethylamino)-N-methylbut-2-enamido)propanamido)propan-2-yl)oxy)-5-fluorophenyl)amino)-6-ethylpyrazine-2-carboxamide] | – |
| 10 to 100 | 10 to 100 | > 500 | CCc1nc(C(N)=O)c(Nc2cc(F)cc(O[C@H](C)CNC(=O)C(C)N(C)C(=O)/C=C/CN(C)C)c2)nc1N(C)C (stereo partly drawn) [Compound 155, 5-(dimethylamino)-3-((3-(((2R)-1-(2-((E)-4-(dimethylamino)-N-methylbut-2-enamido)propanamido)propan-2-yl)oxy)-5-fluorophenyl)amino)-6-ethylpyrazine-2-carboxamide] | – |
| > 500 | 10 to 100 | > 500 | CC#CC(=O)N(C)[C@@H](C)C(=O)NCCc1cccc(Nc2nc(C)c(CC)nc2C(N)=O)c1 [Compound 206, 3-[3-[2-[[(2S)-2-[but-2-ynoyl(methyl)amino]propanoyl]amino]ethyl]anilino]-6-ethyl-5-methyl-pyrazine-2-carboxamide] | – |
| > 500 | 10 to 100 | > 500 | CCc1nc(C(N)=O)c(Nc2cccc(CCNC(=O)C3(N(C)C(=O)/C=C/CN(C)C)CCC3)c2)nc1C [Compound 210, (E)-3-((3-(2-(1-(4-(dimethylamino)-N-methylbut-2-enamido)cyclobutane-1-carboxamido)ethyl)phenyl)amino)-6-ethyl-5-methylpyrazine-2-carboxamide] | – |
| > 500 | > 500 | > 500 | CC#CC(=O)N(C)[C@@H](C)C(=O)NCCc1cccc(Nc2nc(C)c(C)nc2C(N)=O)c1 [Compound 212, (S)-5,6-dimethyl-3-((3-(2-(2-(N-methylbut-2-ynamido)propanamido)ethyl)phenyl)amino)pyrazine-2-carboxamide] | – |
| > 500 | > 500 | > 500 | CCc1nc(C(N)=O)c(Nc2cccc(CCNC(=O)C(C)(C)N(C)C(=O)/C=C/CN(C)C)c2)nc1C [Compound 229, (E)-3-((3-(2-(2-(4-(dimethylamino)-N-methylbut-2-enamido)-2-methylpropanamido)ethyl)phenyl)amino)-6-ethyl-5-methylpyrazine-2-carboxamide] | – |
| > 500 | 10 to 100 | > 500 | CC#CC(=O)N(C)[C@@H](C)C(=O)NCCc1cccc(Nc2nc(C3CC3)c(C)nc2C(N)=O)c1 [Compound 235, (S)-5-cyclopropyl-6-methyl-3-((3-(2-(2-(N-methylbut-2-ynamido)propanamido)ethyl)phenyl)amino)pyrazine-2-carboxamide] | – |
| – | – | – | CCCNc1nc(Nc2ccc(C#N)cc2)ncc1C#CCCCNC(=O)[C@H](C)N(C)C(=O)/C=C/CN(C)C [FF-10101] | demonstrated activity |
